# ChEMBL document CHEMBL5608246, “Membrane-Targeting Amphiphilic Honokiol Derivatives Containing an Oxazole Moiety as Potential Antibacterials against Methicillin-Resistant Staphylococcus aureus” (J Med Chem, 2024)
# Calls of active or inactive are those of the source. The rule behind the calls is not given here.
# Key:
# [1] = test system: Cell membrane; test: Induction of membrane disruption in methicillin resistant Staphylococcus aureus 20 assessed as DNA leakage incubated for 4 hrs by microspectrophotometer analysis; type: cell membranes; details: dose 2-16 µg/ml
# [2] = Toxicity in Kunming mouse assessed as change in urea level at 20 mg/kg, sc measured after 24 hrs; type: organism-based; details: in vivo
# [3] = test system: Cell membrane; test: Induction of membrane disruption in methicillin resistant Staphylococcus aureus 20 assessed as intracellular protein leakage incubated for 4 hrs by microspectrophotometer analysis; type: cell membranes; details: dose 2-16 µg/ml
# [4] = test system: Staphylococcus aureus; test: Upregulation of gpsB gene expression in methicillin resistant Staphylococcus aureus N315 at 4 ug/ml incubated for 4 hrs by RNA-sequencing analysis; type: functional; details: dose 4.0 µg/ml
# [5] = Toxicity in Kunming mouse assessed as change in hematocrit level at 20 mg/kg, sc measured after 24 hrs; type: organism-based; details: in vivo
# [6] = Toxicity in Kunming mouse assessed as kidney abnormalities at 10 mg/kg, sc measured after 24 hrs; type: organism-based; details: in vivo
# [7] = test system: Staphylococcus aureus; test: Antibacterial activity against methicillin resistant Staphylococcus aureus 20 incubated for 16 to 18 hrs in presence of 32 ug/ml cardiolipin by checkerboard broth dilution method; type: functional; details: time 16-18 hrs
# [8] = Hemolytic activity in sheep RBC incubated for 1 hr; type: toxicity, cell-based, Ovis aries, Erythrocyte; details: sheep red blood cells (erythrocytes)
# [9] = test system: Staphylococcus aureus; test: Antibacterial activity against methicillin resistant Staphylococcus aureus M17 incubated for 16 to 18 hrs by broth dilution method; type: functional; details: time 16-18 hrs
# [10] = test system: Cell membrane; test: Induction of membrane depolarization in methicillin resistant Staphylococcus aureus 20 assessed as increase in fluorescence intensity measured at 2 mins interval over 20 mins by DiSC3(5) staining based assay; details: dose 16-64 µg/ml
# [11] = Cytotoxicity against human L02 cells assessed as survival rate at 16 ug/ml incubated for 24 hrs by CCK8 assay; type: toxicity, cell-based; details: at 16 µg/mL, read-out: Survival
# [12] = test system: Staphylococcus aureus; test: Antibacterial activity against methicillin resistant Staphylococcus aureus N315 incubated for 16 to 18 hrs by broth dilution method; type: functional; details: time 16-18 hrs
# [13] = Toxicity in Kunming mouse skin abscess model infected with methicillin resistant Staphylococcus aureus assessed as liver damage at 5 to 10 mg/kg, sc measured after 2 hrs by H and E staining based assay; type: organism-based; details: in vivo, dose 5-10 mg/kg
# [14] = test system: Cell membrane; test: Induction of membrane disruption in methicillin resistant Staphylococcus aureus 20 assessed as viable cells with intact membrane at 64 ug/ml incubated for 2 hrs by SYTO9/PI staining based flow cytometry analysis (reference value: 98.7%); type: cell membranes; details: dose 64.0 µg/ml
# [15] = test system: Cell membrane; test: Induction of membrane disruption in methicillin resistant Staphylococcus aureus 20 assessed as increase in intracellular ROS level incubated for 1 hr by DCFH-DA staining based analysis; type: cell membranes; details: dose 2-128 µg/ml
# [16] = test system: Staphylococcus aureus; test: Antibacterial activity against methicillin resistant Staphylococcus aureus 20 incubated for 16 to 18 hrs in presence of 2 to 64 ug/ml cardiolipin by checkerboard broth dilution method; type: functional, organism-based; details: time 16-18 hrs
# [17] = test system: Cell membrane; test: Induction of membrane disruption in methicillin resistant Staphylococcus aureus 20 assessed as wrinkled membrane at 16 times MIC incubated for 4 hrs by SEM analysis; type: cell membranes
# [18] = test system: Staphylococcus aureus; test: Downregulation of sasA gene expression in methicillin resistant Staphylococcus aureus N315 at 4 ug/ml incubated for 4 hrs by RNA-sequencing analysis; type: functional; details: dose 4.0 µg/ml
# [19] = Toxicity in Kunming mouse assessed as lung abnormalities at 10 mg/kg, sc measured after 24 hrs; type: organism-based; details: in vivo
# [20] = test system: Staphylococcus aureus; test: Antibacterial activity against methicillin resistant Staphylococcus aureus 20 infected in Kunming mouse skin abscess model assessed as reduction in inflammatory cell infiltration in dermal layer at 10 mg/kg, sc measured after 2 hrs; type: functional, organism-based
# [21] = test system: Cell membrane; test: Induction of membrane disruption in methicillin resistant Staphylococcus aureus 20 assessed as viable cells with intact membrane at 32 ug/ml incubated for 2 hrs by SYTO9/PI staining based flow cytometry analysis (reference value: 98.7%); type: cell membranes; details: dose 32.0 µg/ml
# [22] = test system: Staphylococcus aureus; test: Antibacterial activity against methicillin resistant Staphylococcus aureus M20 incubated for 16 to 18 hrs by broth dilution method; type: functional; details: time 16-18 hrs
# [23] = test system: Staphylococcus aureus; test: Bactericidal activity against Staphylococcus aureus ATCC 29213 at 8 times MIC within 6 hrs by time kill assay; type: functional, organism-based
# [24] = test system: Staphylococcus aureus; test: Antibacterial activity against methicillin resistant Staphylococcus aureus M12 incubated for 16 to 18 hrs by broth dilution method; type: functional; details: time 16-18 hrs
# [25] = Toxicity in Kunming mouse assessed as effect on survival at 5 to 80 mg/kg, sc measured after 24 hrs; type: organism-based; details: in vivo, dose 5-80 mg/kg
# [26] = test system: Staphylococcus aureus; test: Inhibition of DNA replication in methicillin resistant Staphylococcus aureus N315 at 4 ug/ml incubated for 4 hrs by RNA-sequencing analysis; type: functional, organism-based; details: dose 4.0 µg/ml
# [27] = Toxicity in Kunming mouse assessed as change in platelet count at 20 mg/kg, sc measured after 24 hrs; type: organism-based; details: in vivo
# [28] = Toxicity in Kunming mouse assessed as change in hemoglobin level at 20 mg/kg, sc measured after 24 hrs; type: organism-based; details: in vivo
# [29] = test system: Staphylococcus aureus; test: Antibacterial activity against methicillin resistant Staphylococcus aureus 20 incubated for 16 to 18 hrs in presence of 2 to 64 ug/ml peptidoglycan by checkerboard broth dilution method; type: functional, organism-based; details: time 16-18 hrs
# [30] = test system: Cell membrane; test: Induction of membrane permeability in methicillin resistant Staphylococcus aureus 20 at 16 to 64 ug/ml measured at 2 mins interval over 20 mins by SYTOX green staining based assay; details: dose 16-64 µg/ml
# [31] = test system: L02; test: Cytotoxicity against human L02 cells assessed as reduction in cell viability incubated for 24 hrs by CCK8 assay; type: toxicity, cell-based; details: l02, 24 h
# [32] = test system: Staphylococcus aureus; test: Downregulation of srtA gene expression in methicillin resistant Staphylococcus aureus N315 at 4 ug/ml incubated for 4 hrs by RNA-sequencing analysis; type: functional; details: dose 4.0 µg/ml
# [33] = test system: Escherichia coli; test: Antibacterial activity against Escherichia coli ATCC 25922 incubated for 16 to 18 hrs by broth dilution method; type: functional; details: time 16-18 hrs
# [34] = test system: Staphylococcus aureus; test: Upregulation of cidA gene expression in methicillin resistant Staphylococcus aureus N315 at 4 ug/ml incubated for 4 hrs by RNA-sequencing analysis; type: functional; details: dose 4.0 µg/ml
# [35] = test system: Staphylococcus aureus; test: Antibacterial activity against methicillin resistant Staphylococcus aureus 20 infected in Kunming mouse skin abscess model assessed as reduction in bacterial load at 10 mg/kg, sc measured after 2 hrs; type: functional; parameters: scale not given: the % may be the effect or the level left
# [36] = test system: Staphylococcus aureus; test: Antibacterial activity against methicillin resistant Staphylococcus aureus 20 infected in Kunming mouse skin abscess model assessed as appearance of smooth back skin at 10 mg/kg, sc measured after 2 hrs; type: functional, organism-based
# [37] = test system: Staphylococcus aureus; test: Inhibition of protein synthesis in methicillin resistant Staphylococcus aureus N315 at 4 ug/ml incubated for 4 hrs by RNA-sequencing analysis; type: functional, organism-based; details: dose 4.0 µg/ml
# [38] = Toxicity in Kunming mouse assessed as spleen abnormalities at 10 mg/kg, sc measured after 24 hrs; type: organism-based; details: in vivo
# [39] = test system: Staphylococcus aureus; test: Antibacterial activity against methicillin resistant Staphylococcus aureus M22 incubated for 16 to 18 hrs by broth dilution method; type: functional; details: time 16-18 hrs
# [40] = test system: Cell membrane; test: Induction of membrane disruption in methicillin resistant Staphylococcus aureus 20 assessed as viable cells with intact membrane at 128 ug/ml incubated for 2 hrs by SYTO9/PI staining based flow cytometry analysis (reference value: 98.7%); type: cell membranes; details: dose 128.0 µg/ml
# [41] = Toxicity in Kunming mouse assessed as skin abnormalities at 20 mg/kg, sc measured after 24 hrs; type: organism-based; details: in vivo
# [42] = test system: Staphylococcus aureus; test: Antibacterial activity against methicillin resistant Staphylococcus aureus M23 incubated for 16 to 18 hrs by broth dilution method; type: functional; details: time 16-18 hrs
compound,measurement,setting,value
C=CCc1cc(-c2ccc(OCCC[N+](C)(C)CC(=O)NCCCC)c(CC=C)c2)c2oc(-c3c(Cl)cccc3Cl)nc2c1.[Br-],Activity,[1],Dose-Dependent Effect
same,Activity,[2],Non-Toxic
same,Activity,[3],Dose-Dependent Effect
same,Activity,[4],Active
same,Activity,[5],Non-Toxic
same,Activity,[6],Non-Toxic
same,MIC,[7],32 µg/mL
same,HC50 at 1 h,[8],218 µg/mL
same,MIC,[9],2 µg/mL
same,Activity,[10],Dose-Dependent Effect
same,"viability at 24 h, 16 ug/ml",[11],75%
same,MIC,[12],4 µg/mL
same,Activity,[13],Non-Toxic
same,Activity,[14],0.28%
same,Activity,[15],Dose-Dependent Effect
same,Activity,[16],inactive
same,Activity,[17],Active
same,Activity,[18],Active
same,Activity,[19],Non-Toxic
same,Activity,[20],Active
same,Activity,[21],0.33%
same,MIC,[22],2 µg/mL
same,Activity,[23],Active
same,MIC,[24],4 µg/mL
same,Activity,[25],Non-Toxic
same,inhibition,[26],Active
same,Activity,[27],Non-Toxic
same,Activity,[28],Non-Toxic
same,Activity,[29],Active
same,Activity,[30],Active
same,Activity,[31],Dose-Dependent Effect
same,Activity,[32],Active
same,MIC,[33],128 µg/mL
same,Activity,[34],Active
same,Activity,[35],96.63%
same,Activity,[36],Active
same,inhibition,[37],Active
same,Activity,[38],Non-Toxic
same,MIC,[39],2 µg/mL
same,Activity,[40],0%
same,Activity,[41],Non-Toxic
same,MIC,[42],4 µg/mL
